Source: patent publication US9695155B2, “Herbicidal substituted pyrimidinyloxy benzene compounds” (E. I. DU PONT DE NEMOURS AND COMPANY, priority 2013, dated 2017)

Experiments:
ragweed [1] = assay: Test A postemergence; type: in vivo, Ambrosia elatior
In short: (§1)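 Injury scores run from 0, no effect, to 100, complete control, judged by eye against untreated plants roughly 10 days after treatment. Chemicals carried a surfactant in a non-phytotoxic solvent and went onto loam–sand soil preemergence or onto one- to two-leaf seedlings postemergence.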

rice = assay: Test B flooded paddy test; type: in vivo, Oryza sativa; details: Flood, 250 g ai/ha; 0 to 100 scale where 0 is no effect and 100 is complete control
In short: (§2)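 Compound added straight to paddy water, with pots kept flooded 3 cm above soil, on plants grown to the 2-leaf stage. Visual scoring 0-100 (100 = complete control) against untreated controls after 13 to 15 greenhouse days.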

wheat = assay: Test A postemergence; type: in vivo, Triticum aestivum
In short: as §1

giant foxtail [2] = assay: Test A preemergence; type: in vivo, Setaria faberii; details: for Plant response rating, Foxtail, Giant: 125 g ai/ha
In short: as §1

pigweed [3] = assay: Test A preemergence; type: in vivo, Amaranthus retroflexus; details: for Plant response rating, Pigweed: 125 g ai/ha
In short: as §1

Italian ryegrass [4] = assay: Test A postemergence; type: in vivo, Lolium multiflorum
In short: as §1

barnyardgrass [5] = assay: Test A postemergence; type: in vivo, Echinochloa crus-galli
In short: as §1

barnyardgrass [6] = assay: Test A preemergence; type: in vivo, Echinochloa crus-galli; details: for Plant response rating, Barnyardgrass: 125 g ai/ha
In short: as §1

corn = assay: Test A postemergence; type: in vivo, Zea mays
In short: as §1

sedge, umbrella = assay: Test B flooded paddy test; type: in vivo, Cyperus difformis; details: Flood, 250 g ai/ha; 0 to 100 scale where 0 is no effect and 100 is complete control
In short: as §2

blackgrass = assay: Test A postemergence; type: in vivo, Alopecurus myosuroides
In short: as §1

galium = assay: Test A postemergence; type: in vivo, Galium aparine
In short: as §1

giant foxtail [7] = assay: Test A postemergence; type: in vivo, Setaria faberii
In short: as §1

kochia [8] = assay: Test A postemergence; type: in vivo, Kochia scoparia
In short: as §1

Heteranthera limosa = assay: Test B flooded paddy test; type: in vivo; details: Flood, 250 g ai/ha; 0 to 100 scale where 0 is no effect and 100 is complete control
In short: as §2

barnyardgrass [9] = assay: Test B flooded paddy test; type: in vivo, Echinochloa crus-galli; details: Flood, 250 g ai/ha; 0 to 100 scale where 0 is no effect and 100 is complete control
In short: as §2

ragweed [10] = assay: Test A preemergence; type: in vivo, Ambrosia elatior; details: for Plant response rating, Ragweed: 125 g ai/ha
In short: as §1

pigweed [11] = assay: Test A postemergence; type: in vivo, Amaranthus retroflexus
In short: as §1

kochia [12] = assay: Test A preemergence; type: in vivo, Kochia scoparia; details: for Plant response rating, Kochia: 125 g ai/ha
In short: as §1

Italian ryegrass [13] = assay: Test A preemergence; type: in vivo, Lolium multiflorum; details: for Plant response rating, Ryegrass, Italian: 125 g ai/ha
In short: as §1

[14] = 125 g ai/ha, 0 to 100 scale where 0 is no effect and 100 is complete control
[15] = 500 g ai/ha, 0 to 100 scale where 0 is no effect and 100 is complete control
[16] = 0 to 100 scale where 0 is no effect and 100 is complete control
[17] = 31 g ai/ha, 0 to 100 scale, 0 no effect, 100 complete control

N#Cc1cccc(Oc2ncc(Cl)cn2)c1-n1cc(SC(F)(F)F)cn1 [Compound 143, 3-[(5-chloro-2-pyrimidinyl)oxy]-2-[4-(trifluoromethylthio)-1H-pyrazol-1-yl]-benzonitrile]
Ragweed plant response rating (ragweed [1]; [14]): 0
Plant response rating, Ragweed (ragweed [1]; [15]): 100
Plant response rating, Rice (rice): 0
Wheat plant response rating (wheat; [14]): 0
Plant response rating, Wheat (wheat; [15]): 30
Plant response rating, Foxtail, Giant (giant foxtail [2]; [16]): 80
pest or weed control at 500 g/ha (giant foxtail [2]; Setaria faberi, pre-emergence, 240 h, 500 g ai/ha, 0 to 100 scale where 0 is no effect and 100 is complete control, read-out: Foxtail, Giant plant response rating): 100%
Plant response rating, Pigweed (pigweed [3]; [16]): 90
pest or weed control at 500 g/ha (pigweed [3]; Amaranthus retroflexus, pre-emergence, 240 h, 500 g ai/ha, 0 to 100 scale where 0 is no effect and 100 is complete control, read-out: Pigweed plant response rating): 100%
Ryegrass, Italian plant response rating (Italian ryegrass [4]; [14]): 0
Plant response rating, Ryegrass, Italian (Italian ryegrass [4]; [15]): 90
Barnyardgrass plant response rating (barnyardgrass [5]; [14]): 0
pest or weed control at 500 g/ha (barnyardgrass [5]; Echinochloa crus-galli, post-emergence, 240 h, 500 g ai/ha, 0 to 100 scale where 0 is no effect and 100 is complete control, read-out: Plant response rating, Barnyardgrass): 80%
Plant response rating, Barnyardgrass (barnyardgrass [6]; [16]): 30
pest or weed control at 500 g/ha (barnyardgrass [6]; Echinochloa crus-galli, pre-emergence, 240 h, 500 g ai/ha, 0 to 100 scale where 0 is no effect and 100 is complete control, read-out: Barnyardgrass plant response rating): 100%
Corn plant response rating (corn; [14]): 30
Corn plant response rating (crop injury, 0 = no effect, 100 = complete kill) at 500 g/ha (corn; Zea mays, post-emergence, 240 h, 500 g ai/ha, 0 to 100 scale where 0 is no effect and 100 is complete control): 40%
Plant response rating, Sedge, Umbrella (sedge, umbrella): 0
Blackgrass plant response rating (blackgrass; [14]): 0
Plant response rating, Blackgrass (blackgrass; [15]): 90
Galium plant response rating (galium; [14]): 30
Plant response rating, Galium (galium; [15]): 100
Foxtail, Giant plant response rating (giant foxtail [7]; [14]): 0
pest or weed control at 500 g/ha (giant foxtail [7]; Setaria faberi, post-emergence, 240 h, 500 g ai/ha, 0 to 100 scale where 0 is no effect and 100 is complete control, read-out: Plant response rating, Foxtail, Giant): 100%
Kochia plant response rating (kochia [8]; [14]): 30
Plant response rating, Kochia (kochia [8]; [15]): 90
Plant response rating, Ducksalad (Heteranthera limosa): 40
Plant response rating, Barnyardgrass (barnyardgrass [9]): 0
Plant response rating, Ragweed (ragweed [10]; [16]): 0
Ragweed plant response rating (ragweed [10]; [15]): 20
Pigweed plant response rating (pigweed [11]; [14]): 70
pest or weed control at 500 g/ha (pigweed [11]; Amaranthus retroflexus, post-emergence, 500 g ai/ha, 0 to 100 scale where 0 is no effect and 100 is complete control, read-out: Plant response rating, Pigweed): 100%
Plant response rating, Kochia (kochia [12]; [16]): 50
Kochia plant response rating (kochia [12]; [15]): 100
Plant response rating, Ryegrass, Italian (Italian ryegrass [13]; [16]): 0
Ryegrass, Italian plant response rating (Italian ryegrass [13]; [15]): 20

Fc1cnc(Oc2cccc(Cl)c2-n2cc(OC(F)F)cn2)nc1 [Compound 101]
Plant response rating, Ragweed (ragweed [1]; [17]): 50
Plant response rating, Rice (rice): 0
Plant response rating, Wheat (wheat; [17]): 20
Foxtail, Giant plant response rating (0 to 100 scale) (giant foxtail [2]; 31 g ai/ha): 70
Plant response rating, Foxtail, Giant (giant foxtail [2]; [16]): 90
Pigweed plant response rating (0 to 100 scale) (pigweed [3]; 31 g ai/ha): 90
Plant response rating, Pigweed (pigweed [3]; [16]): 100
Plant response rating, Ryegrass, Italian (Italian ryegrass [4]; [17]): 0
Plant response rating, Barnyardgrass (barnyardgrass [5]; [17]): 20
Plant response rating, Barnyardgrass (barnyardgrass [5]; [14]): 20
Barnyardgrass plant response rating (0 to 100 scale) (barnyardgrass [6]; 31 g ai/ha): 60
Plant response rating, Barnyardgrass (barnyardgrass [6]; [16]): 70
Plant response rating, Corn (corn; [17]): 10
Plant response rating, Corn (corn; [14]): 20
Plant response rating, Sedge, Umbrella (sedge, umbrella): 0
Plant response rating, Blackgrass (blackgrass; [17]): 20
Plant response rating, Blackgrass (blackgrass; [14]): 20
Plant response rating, Galium (galium; [17]): 40
Plant response rating, Galium (galium; [14]): 60
Plant response rating, Foxtail, Giant (giant foxtail [7]; [17]): 20
Plant response rating, Foxtail, Giant (giant foxtail [7]; [14]): 60
Plant response rating, Kochia (kochia [8]; [17]): 70
Plant response rating, Kochia (kochia [8]; [14]): 100
Plant response rating, Ducksalad (Heteranthera limosa): 0
Plant response rating, Barnyardgrass (barnyardgrass [9]): 0
Ragweed plant response rating (0 to 100 scale) (ragweed [10]; 31 g ai/ha): 0
Plant response rating, Ragweed (ragweed [10]; [16]): 30
Plant response rating, Pigweed (pigweed [11]; [17]): 90
Kochia plant response rating (0 to 100 scale) (kochia [12]; 31 g ai/ha): 70
Plant response rating, Kochia (kochia [12]; [16]): 70
Ryegrass, Italian plant response rating (0 to 100 scale) (Italian ryegrass [13]; 31 g ai/ha): 0
Plant response rating, Ryegrass, Italian (Italian ryegrass [13]; [16]): 0
